{
  "source": "patent US20190274303A1",
  "about": "“USE OF A DIFLUORO-(2-HYDROXYPROPYL)PYRIDINE COMPOUND AS A FUNGICIDE FOR CONTROL OF PHYTOPATHOGENIC FUNGI OF BARLEY” (Dow AgroSciences LLC, priority 2016, published 2019)",
  "assay_type_in_all_cases": "in vivo",
  "key": {"Puccinia hordei (PUCCHD)": {"test_system": "Puccinia hordei (PUCCHD)", "assay": "Field assessment of barley rust", "settings": "for Percent Control PUCCHD: based on AUDPC, winter barley, field", "method": "Field Assessment of Puccinia hordei (PUCCHD) in Barley:\nA fungicidal treatment containing Compound I was assessed against barley rust (PUCCHD) in two separate field trials. In each trial, fungicidal treatments of Compound I were applied using two separate adjuvant systems. In the first system, an EC formulation of compound I was tank mixed with Agnique BP-420 (50%) at an active:adjuvant ratio of 1:2. The second adjuvant system was an SC formulation of Compound I tank mixed with Agnique BP-420 EW (38.5%) at an active:adjuvant ratio of 1:2 and Agnique FOH TDA-9 (30% w/w) applied at 0.33% V/V. Both the EC and SC formulation was sprayed on barley plants at rates of 25, 50, 75, 100, 150, 200 and 250 grams active ingredient per hectare (g ai/ha). Fungicidal treatments were applied at B39 (early curative, 1% infection on leaf 1) growth stage of winter barley (HORVW, Maris Otter and Lomerit variety) under natural infection of PUCCHD. The treatment was part of an experimental trial designed as a randomized complete block with four replications.\nDisease severity was recorded as a percentage of visual diseased foliage on whole plot. Barley rust infection was recorded following EPPO PP1/26 guideline prescriptions. Area under the disease progress curve (AUDPC) was calculated for each plot using the sets of recorded severity data. Relative AUDPC (% control based on AUDPC) was calculated as percent of the nontreated control.\n(§1) In each case of the following Tables, the rating scale of percent control based on AUDPC is as follows: […]"}, "[1]": {"test_system": "Pyrenophora teres (PYRNTE)", "assay": "Field assessment of net blotch of barley", "settings": "for Percent Control PYRNTE: based on AUDPC, barley, field", "method": "Field Assessment of Pyrenophora teres (PYRNTE) in Barley:\nA fungicidal treatment containing Compound I was assessed against net blotch of barley (PYRNTE) in two separate field trials. In each trial, fungicidal treatments of Compound I were applied using two separate adjuvant systems. In the first system, an EC formulation of compound I was tank mixed with Agnique BP-420 (50%) at an active:adjuvant ratio of 1:2. The second adjuvant system was an SC formulation of Compound I tank mixed with Agnique BP-420 EW (38.5%) at an active:adjuvant ratio of 1:2 and Agnique FOH TDA-9 (30% w/w) applied at 0.33% V/V. Both the EC and SC formulation was sprayed on barley plants at rates of 25, 50, 75, 100, 150, 200 and 250 grams active ingredient per hectare (g ai/ha). In the first trial, fungicidal treatments of Compound I were applied at B39 (early curative, 1% infection on leaf 1) growth stage of winter barley (HORVW, Lomerit variety) under natural infection of PYRNTE. The treatment was part of an experimental trial designed as a randomized complete block with four replications. In the second trial, fungicidal treatments of Compound I were applied at B37 (protectant, 1% infection on leaf 4) growth stage of spring barley (HORVS, Scarlett variety) under natural infection of PYRNTE. The treatment was part of an experimental trial designed as a randomized complete block with four replications.\nDisease severity was recorded as a percentage of visual diseased foliage on whole plot. Net blotch of barley infection was recorded following EPPO PP1/26 guideline prescriptions. Area under the disease progress curve (AUDPC) was calculated for each plot using the sets of recorded severity data. Relative AUDPC (% control based on AUDPC) was calculated as percent of the nontreated control.\nas §1"}, "[2]": {"test_system": "Rhyncosporium secalis (RHYNSE)", "assay": "Field assessment of barley leaf scald, Trial 1 (EC formulation alone or with adjuvants)", "settings": "for % Control RHYNSE: based on AUDPC, winter barley, field, EC", "method": "Field assessment of Rhyncosporium secalis (RHYNSE) in barley:\nTrial 1: A fungicidal treatment containing Compound I was assessed against barley scald (RHYNSE) in two separate field trials. In the first trial, a fungicidal treatment containing an EC formulation of compound I by itself and in combination with two separate adjuvants was sprayed on barley plants at rates of 50, 100 and 150 grams active ingredient per hectare (g ai/ha). Fungicidal treatments were applied at B47-51 (curative, 3% infection on leaf 2) growth stage of winter barley (HORVW, Lomerit variety) under natural infection of RHYNSE. The treatment was part of an experimental trial designed as a randomized complete block with four replications and a plot of approximately 2×3 m. Compound I was applied at water volume of 200 L/ha, using a backpack precision plot sprayer (BICYCAIR, Flat Fan Air Assisted Nozle) and pressurized at 220 kPa.\nDisease severity was recorded as a percentage of visual diseased foliage on whole plot. Barley leaf scald infection was assessed several times during the growing season with a final assessment 39 days after application of compound I. The disease infection was recorded following EPPO PP1/26 guideline prescriptions. Area under the disease progress curve (AUDPC) was calculated for each plot using the sets of recorded severity data. Relative AUDPC (% control based on AUDPC) was calculated as percent of the nontreated control.\nas §1"}, "[3]": {"settings": "25 g ai/ha, EC + Agnique BP-420"}, "[4]": {"settings": "25 g ai/ha, SC + Agnique BP-420 EW and Agnique FOH TDA-9"}, "[5]": {"settings": "50 g ai/ha, EC + Agnique BP-420"}, "[6]": {"settings": "75 g ai/ha, EC + Agnique BP-420"}, "[7]": {"settings": "75 g ai/ha, SC + Agnique BP-420 EW and Agnique FOH TDA-9"}, "[8]": {"settings": "100 g ai/ha, EC + Agnique BP-420"}, "[9]": {"settings": "100 g ai/ha, SC + Agnique BP-420 EW and Agnique FOH TDA-9"}, "[10]": {"settings": "150 g ai/ha, EC + Agnique BP-420"}, "[11]": {"settings": "150 g ai/ha, SC + Agnique BP-420 EW and Agnique FOH TDA-9"}, "[12]": {"settings": "200 g ai/ha, EC + Agnique BP-420"}, "[13]": {"settings": "200 g ai/ha, SC + Agnique BP-420 EW and Agnique FOH TDA-9"}, "[14]": {"settings": "250 g ai/ha, EC + Agnique BP-420"}, "[15]": {"settings": "250 g ai/ha, SC + Agnique BP-420 EW and Agnique FOH TDA-9"}},
  "data": [
    {"smiles": "N#Cc1ccc(Oc2ccc(C(F)(F)C(O)(Cn3ncnc3S)c3ccc(F)cc3F)nc2)cc1", "note": "(stereo not shown) [Compound I, 4-((6-(2-(2,4-difluorophenyl)-1,1-difluoro-2-hydroxy-3-(5-mercapto-1H-1,2,4-triazol-1-yl)propyl)pyridin-3-yl)oxy)benzonitrile]", "values": [
      {"measurement": "fungicidal effect on Puccinia Hordei", "setting": "Puccinia hordei (PUCCHD); barley rust, general statement", "value": "significant fungicidal effect"},
      {"measurement": "Percent Control PUCCHD", "setting": "Puccinia hordei (PUCCHD); [3]", "value": "B (51-74)"},
      {"measurement": "Percent Control PUCCHD", "setting": "Puccinia hordei (PUCCHD); [4]", "value": "B (51-74)"},
      {"measurement": "Percent Control PUCCHD", "setting": "Puccinia hordei (PUCCHD); [5]", "value": "B (51-74)"},
      {"measurement": "Percent Control PUCCHD", "setting": "Puccinia hordei (PUCCHD); 50 g ai/ha, Sc (SC + Agnique BP-420 EW and Agnique FOH TDA-9)", "value": "B (51-74)"},
      {"measurement": "Percent Control PUCCHD", "setting": "Puccinia hordei (PUCCHD); [6]", "value": "A (75-100)"},
      {"measurement": "Percent Control PUCCHD", "setting": "Puccinia hordei (PUCCHD); [7]", "value": "B (51-74)"},
      {"measurement": "Percent Control PUCCHD", "setting": "Puccinia hordei (PUCCHD); [8]", "value": "A (75-100)"},
      {"measurement": "Percent Control PUCCHD", "setting": "Puccinia hordei (PUCCHD); [9]", "value": "A (75-100)"},
      {"measurement": "Percent Control PUCCHD", "setting": "Puccinia hordei (PUCCHD); [10]", "value": "A (75-100)"},
      {"measurement": "Percent Control PUCCHD", "setting": "Puccinia hordei (PUCCHD); [11]", "value": "A (75-100)"},
      {"measurement": "Percent Control PUCCHD", "setting": "Puccinia hordei (PUCCHD); [12]", "value": "A (75-100)"},
      {"measurement": "Percent Control PUCCHD", "setting": "Puccinia hordei (PUCCHD); [13]", "value": "A (75-100)"},
      {"measurement": "Percent Control PUCCHD", "setting": "Puccinia hordei (PUCCHD); [14]", "value": "A (75-100)"},
      {"measurement": "Percent Control PUCCHD", "setting": "Puccinia hordei (PUCCHD); [15]", "value": "A (75-100)"},
      {"measurement": "Percent Control PYRNTE", "setting": "[1]; [3]", "value": "D (1-25)"},
      {"measurement": "Percent Control PYRNTE", "setting": "[1]; [4]", "value": "D (1-25)"},
      {"measurement": "Percent Control PYRNTE", "setting": "[1]; [5]", "value": "D (1-25)"},
      {"measurement": "Percent Control PYRNTE", "setting": "[1]; 50 g ai/ha, SC + Agnique BP-420 EW and Agnique FOH TDA-9", "value": "D (1-25)"},
      {"measurement": "Percent Control PYRNTE", "setting": "[1]; [6]", "value": "D (1-25)"},
      {"measurement": "Percent Control PYRNTE", "setting": "[1]; [7]", "value": "D (1-25)"},
      {"measurement": "Percent Control PYRNTE", "setting": "[1]; [8]", "value": "D (1-25)"},
      {"measurement": "Percent Control PYRNTE", "setting": "[1]; [9]", "value": "C (26-50)"},
      {"measurement": "Percent Control PYRNTE", "setting": "[1]; [10]", "value": "C (26-50)"},
      {"measurement": "Percent Control PYRNTE", "setting": "[1]; [11]", "value": "C (26-50)"},
      {"measurement": "Percent Control PYRNTE", "setting": "[1]; [12]", "value": "C (26-50)"},
      {"measurement": "Percent Control PYRNTE", "setting": "[1]; [13]", "value": "B (51-74)"},
      {"measurement": "Percent Control PYRNTE", "setting": "[1]; [14]", "value": "B (51-74)"},
      {"measurement": "Percent Control PYRNTE", "setting": "[1]; [15]", "value": "B (51-74)"},
      {"measurement": "fungicidal effect on Pyrenophora teres", "setting": "[1]; net blotch of barley, general statement", "value": "significant fungicidal effect"},
      {"measurement": "% Control RHYNSE", "setting": "[2]; 50 g ai/ha, Agnique BP-420 (50% w/w at 0.15% v/v)", "value": "C (26-50)"},
      {"measurement": "% Control RHYNSE", "setting": "[2]; 50 g ai/ha, Agnique BP-420 (50% w/w at 0.3% v/v)", "value": "B (51-74)"},
      {"measurement": "% Control RHYNSE", "setting": "[2]; 50 g ai/ha, Agnique SBO-10 (0.15% v/v)", "value": "C (26-50)"},
      {"measurement": "% Control RHYNSE", "setting": "[2]; 50 g ai/ha, adjuvant None", "value": "C (26-50)"},
      {"measurement": "% Control RHYNSE", "setting": "[2]; 100 g ai/ha, Agnique BP-420 (50% w/w at 0.15% v/v)", "value": "B (51-74)"},
      {"measurement": "% Control RHYNSE", "setting": "[2]; 100 g ai/ha, Agnique BP-420 (50% w/w at 0.3% v/v)", "value": "B (51-74)"},
      {"measurement": "% Control RHYNSE", "setting": "[2]; 100 g ai/ha, Agnique SBO-10 (0.15% v/v)", "value": "B (51-74)"},
      {"measurement": "% Control RHYNSE", "setting": "[2]; 100 g ai/ha, adjuvant None", "value": "C (26-50)"},
      {"measurement": "% Control RHYNSE", "setting": "[2]; 150 g ai/ha, Agnique BP-420 (50% w/w at 0.15% v/v)", "value": "B (51-74)"},
      {"measurement": "% Control RHYNSE", "setting": "[2]; 150 g ai/ha, Agnique BP-420 (50% w/w at 0.3% v/v)", "value": "B (51-74)"},
      {"measurement": "% Control RHYNSE", "setting": "[2]; 150 g ai/ha, Agnique SBO-10 (0.15% v/v)", "value": "B (51-74)"},
      {"measurement": "% Control RHYNSE", "setting": "[2]; 150 g ai/ha, adjuvant None", "value": "C (26-50)"},
      {"measurement": "fungicidal effect on Rhyncosporium secalis", "setting": "[2]; leaf scald of barley, general statement", "value": "significant fungicidal effect"}
    ]}
  ]
}
